Measured values: ChEMBL document CHEMBL1201862, “PubChem BioAssay data set” (2004)
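96-well plates; 48 h exposure; 5 concentrations. Endpoints by linear interpolation between flanking doses. Not reached: highest tested concentration assigned. At the GI50, growth is halved.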 Calls of active or inactive are those of the source. Cut-off read from the data, not from the text of the source: active = GI50 up to about 1.1 µM and inactive = higher.

What was measured:
Assay in all cases: NCI anticancer screen, dose series, 48 h
[1] = test system: A498
[2] = test system: CCRF-CEM
[3] = test system: DMS-114
[4] = test system: HCC 2998
[5] = test system: HL-60
[6] = test system: HOP-62
[7] = test system: HOP-92
[8] = test system: HT-29
[9] = test system: IGROV-1
[10] = test system: K562
[11] = test system: M19-MEL
[12] = test system: MCF7
[13] = test system: NCI-H460
[14] = test system: NCI-H522
[15] = test system: SF-268
[16] = test system: SK-MEL-28
[17] = test system: SK-OV-3
[18] = test system: SNB-78
[19] = test system: UACC-62
[20] = test system: XF498

Measured: GI50

S=P1(Sc2ccccc2)Oc2ccc3ccccc3c2-c2c(ccc3ccccc23)O1
inactive: [1] > 84.7 µM | [2] > 100 µM | [3] > 58.6 µM | [4] > 100 µM | [5] > 77.4 µM | [6] > 100 µM | [7] > 100 µM | [8] 51.5 µM | [9] > 100 µM | [10] 80.7 µM | [11] > 100 µM | [12] 71.8 µM | [13] > 100 µM | [14] 49.9 µM | [15] > 100 µM | [16] > 78.5 µM | [17] > 100 µM | [18] > 100 µM | [19] > 100 µM | [20] > 100 µM
